Reference: ChEMBL document CHEMBL4371060, “Identification of fluorinated (R)-(-)-aporphine derivatives as potent and selective ligands at serotonin 5-HT2C receptor” (Bioorg Med Chem Lett, 2019)

Legend:
[1] = biological target: 5-hydroxytryptamine receptor 2A (Homo sapiens, UniProt P28223); assay: Displacement of [3H]ketanserin from 5HT2A receptor (unknown origin) expressed in HEK293T cell membranes
[2] = biological target: Serotonin 2 receptors; 5-HT2a & 5-HT2c (Homo sapiens) (UniProt P28223+P28335); assay: Selectivity ratio of Ki for displacement of [3H]ketanserin from 5HT2A receptor (unknown origin) expressed in HEK293T cell membranes to Ki for displacement of [3H]mesulergine from 5HT2C receptor (unknown origin) expressed in HEK293T cell membranes
Homo sapiens = organism: Homo sapiens; assay: Selectivity ratio of Ki for displacement of [3H]LSD from 5HT2B receptor (unknown origin) expressed in HEK293 cell membranes to Ki for displacement of [3H]mesulergine from 5HT2C receptor (unknown origin) expressed in HEK293T cell membranes
[3] = biological target: 5-hydroxytryptamine receptor 2B (Homo sapiens, UniProt P41595); assay: Displacement of [3H]LSD from 5HT2B receptor (unknown origin) expressed in HEK293 cell membranes
[4] = biological target: T1, 5-hydroxytryptamine receptor 2C (Homo sapiens, UniProt P28335); assay: Displacement of [3H]mesulergine from 5HT2C receptor (unknown origin) expressed in HEK293T cell membranes
T1 sequence (P28335 whole entry): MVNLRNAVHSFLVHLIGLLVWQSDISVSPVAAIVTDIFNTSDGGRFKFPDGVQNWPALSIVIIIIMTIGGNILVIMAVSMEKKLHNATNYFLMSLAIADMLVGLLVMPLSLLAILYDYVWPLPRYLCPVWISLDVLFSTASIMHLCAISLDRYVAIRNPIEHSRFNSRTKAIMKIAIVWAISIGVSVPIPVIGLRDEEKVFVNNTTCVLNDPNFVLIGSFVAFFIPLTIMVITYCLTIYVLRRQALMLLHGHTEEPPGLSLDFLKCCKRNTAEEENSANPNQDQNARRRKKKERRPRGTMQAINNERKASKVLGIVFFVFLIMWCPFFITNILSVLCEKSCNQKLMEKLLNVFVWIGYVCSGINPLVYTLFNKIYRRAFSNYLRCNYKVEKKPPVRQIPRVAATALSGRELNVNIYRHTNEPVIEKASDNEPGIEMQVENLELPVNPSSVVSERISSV

[5] = Selectivity ratio of Ki for displacement of [3H]DOI from recombinant human 5HT2B receptor expressed in HEK293T cell membranes to Ki for displacement of [3H]DOI from recombinant human 5HT2C receptor expressed in HEK293T cell membranes

Sequence of 5-hydroxytryptamine receptor 2B (P41595 whole entry): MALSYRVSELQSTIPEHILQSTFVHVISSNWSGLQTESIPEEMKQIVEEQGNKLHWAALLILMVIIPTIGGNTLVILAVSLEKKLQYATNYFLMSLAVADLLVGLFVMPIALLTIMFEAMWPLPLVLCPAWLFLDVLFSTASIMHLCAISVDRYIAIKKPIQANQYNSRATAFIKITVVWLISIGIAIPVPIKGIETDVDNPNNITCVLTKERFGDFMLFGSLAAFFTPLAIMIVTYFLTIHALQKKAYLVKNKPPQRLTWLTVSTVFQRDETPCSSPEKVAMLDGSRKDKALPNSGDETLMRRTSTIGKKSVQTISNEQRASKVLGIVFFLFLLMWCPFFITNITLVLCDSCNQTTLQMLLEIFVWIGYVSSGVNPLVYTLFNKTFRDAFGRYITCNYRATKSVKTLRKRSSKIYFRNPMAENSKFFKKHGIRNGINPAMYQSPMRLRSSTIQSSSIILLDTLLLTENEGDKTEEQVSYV
Sequence of Serotonin 2 receptors; 5-HT2a & 5-HT2c (Homo sapiens) (P28223 whole entry, looked up, one chain of several): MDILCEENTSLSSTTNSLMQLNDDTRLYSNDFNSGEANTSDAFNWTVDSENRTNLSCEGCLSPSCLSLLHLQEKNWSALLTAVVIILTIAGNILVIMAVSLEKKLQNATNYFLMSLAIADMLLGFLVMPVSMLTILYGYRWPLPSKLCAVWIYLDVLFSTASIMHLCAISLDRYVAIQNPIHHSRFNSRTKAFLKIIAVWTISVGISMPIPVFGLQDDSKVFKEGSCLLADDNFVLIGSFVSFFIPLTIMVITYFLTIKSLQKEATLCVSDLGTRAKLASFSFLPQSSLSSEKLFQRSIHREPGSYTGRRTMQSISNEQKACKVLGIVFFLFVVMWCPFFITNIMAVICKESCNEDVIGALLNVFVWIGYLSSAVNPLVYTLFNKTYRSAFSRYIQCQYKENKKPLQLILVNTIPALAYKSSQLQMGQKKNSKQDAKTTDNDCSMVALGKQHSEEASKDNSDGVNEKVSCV
Sequence of 5-hydroxytryptamine receptor 2A (P28223 whole entry): as the sequence (P28223 whole entry, looked up, one chain of several) above

| Structure (SMILES) | Ki [1] [nM] | Ratio Ki [2] | Ratio Ki (Homo sapiens) | Ki [3] [nM] | Ki [4] [nM] | Ki [5] [nM] |
| --- | --- | --- | --- | --- | --- | --- |
| COc1cc2c3c(c1)-c1c(cccc1OCCF)C[C@H]3N(C)CC2 | 1140 | 3.3 | 1.6 | 552 | 343 |  |
| CCCN1CCc2cc(OC)cc3c2[C@H]1Cc1cccc(OCc2ccc(F)cc2)c1-3 | > 10000 |  |  | > 10000 | > 10000 |  |
| CCCN1CCc2cc(OC)cc3c2[C@H]1Cc1cccc(OCCF)c1-3 | > 10000 |  |  | 3040 | > 10000 |  |
| COc1cc2c3c(c1)-c1c(cccc1OC(=O)c1ccc(F)cc1)C[C@H]3N(C)CC2 | 450 | 14 | 3.2 | 102 | 32 |  |
| COc1cc2c3c(c1)-c1c(cccc1OCc1ccc(F)cc1)C[C@H]3N(C)CC2 | 2310 |  |  | 2680 | > 10000 |  |
| C[C@H]1CNCCc2ccc(Cl)cc21 [LORCASERIN] |  |  |  |  |  | 12 |
| CCCN1CCc2cc(OC)cc3c2[C@H]1Cc1cccc(OCCCF)c1-3 | > 10000 |  |  | > 10000 | > 10000 |  |
| CCCN1CCc2cc(OC)cc3c2[C@H]1Cc1cccc(OC(=O)c2ccc(F)cc2)c1-3 | 414 | 17 | 4.4 | 106 | 24 |  |
| COc1cc2c3c(c1)-c1c(cccc1OCCCF)C[C@H]3N(C)CC2 | 434 | 1.3 | 1.2 | 422 | 338 |  |
